Earlier results on four molecules are cited in US6955827B2, “Method of controlling release of antimicrobial agents in chewing gum” (Wm. Wrigley Jr. Company, priority 1997, dated 2005).

The conditions of this data set: at 25° C.
For the molecule `N=C(NCCCCCCNC(=N)NC(=N)Nc1ccc(Cl)cc1)NC(=N)Nc1ccc(Cl)cc1.O=C(O)[C@H](O)[C@@H](O)[C@H](O)[C@H](O)CO.O=C(O)[C@H](O)[C@@H](O)[C@H](O)[C@H](O)CO` [Chlorhexidine digluconate, chlorhexidine digluconate], the water solubility is recorded as 50%.

Turning to `CCCCCCc1ccc(O)cc1O` [Hexylresorcinol, hexylresorcinol], the water solubility entry is given as “about 0.05%”.

Take `CCCCCCCCCCCCCCCC[n+]1ccccc1` [Cetylpyridinium chloride, cetylpyridinium chloride]: the water solubility is recorded as 33%.

Consider `Oc1cc(Cl)ccc1Oc1ccc(Cl)cc1Cl` [Triclosan, 2,4,4-trichloro-2-hydroxydiphenyl ether], for which the water solubility result was “about 0.05%”.
